Source: US20240376504A1, “ENZYMATIC SYNTHESIS OF MYCOSPORINE-LIKE AMINO ACIDS” (University of Florida Research Foundation, Incorporated, priority 2021, published 2024)

Assays:
[1] = system: recombinant His6-tagged MysD; assay: MysD reaction, relative activity of amino acid substrates (MG consumption by HPLC); assay type: biochemical, Nostoc linkia NIES-25; conditions: 0.25 μM MysD; L-Thr reaction (8 min) set as 100%; from concentrations of disubstituted MAAs produced
Description: The current and previous heterologous expression studies supported the function of MysD in the biosynthesis of disubstituted MAAs (FIG. 3).^29,35 To further characterize its catalytic properties, recombinant His6-tagged MysD of N. linkia NIES-25 was prepared from E. coli after a single affinity purification (FIG. 21). The enzyme reaction was performed with MysD (0.5 μM), MG (50 μM), and L-Thr (1 mM) in the presence of ATP (1 mM) and Mg^2+ (10 mM) at room temperature for 2 h. […] No product was formed in the control reactions without enzyme or ATP (FIG. 5A). The requirement of ATP for the MysD reaction supports its prediction as the D-Ala-D-Ala ligase-like enzyme of the ATP grasp superfamily.^29 The optimal temperature and pH of its reaction were determined at 37° C. and pH=8.5 (FIG. 22). Under these optimal reaction conditions, all 20 natural amino acids were screened (5 mM) along with MG (50 μM) in the MysD reaction. […] LC-HRMS and MS/MS analysis indicated the formation of their corresponding disubstituted MAAs, MG-Ala, MG-Arg (observed [M+H]^+: 402.1977; calculated [M+H]^+: 402.1983), MG-Cys (observed [M+H]^+: 349.1059; calculated [M+H]^+: 349.1064), mycosporine-2-Gly (observed [M+H]^+: 303.1182; calculated [M+H]^+: 303.1187), shinorine, and porphyra-334 (FIGS. 24, 25, and 26). L-Ser and L-Thr led to the complete consumption of MG in the MysD reactions after 3 h, followed by L-Cys. […] Nonetheless, the result of this biochemical study well agreed with the production of porphyra-334 along with small amounts of shinorine and MG-Ala in the above heterologous expression study (FIG. 3C). To further understand MysD's substrate preference, the enzyme concentration was lowered to 0.25 μM. […] The consumed MG level in this reaction was set as 100% to normalize its level in the five other reactions, which was determined from the concentrations of produced disubstituted MAAs in the reactions (FIG. 5C). […] Together, the results of these biochemical studies highlight the broad substrate scope of MysD and its strong preference toward L-Thr in the MAA biosynthesis.
MysD Reaction. […] The quality of MG was calculated based on its reported extinction coefficient (28,100 M^−1 cm^−1). […] The reactions were terminated and then analyzed in the HPLC and/or LC-MS analysis. […] First, the reactions were performed with 0.25 μM MysD for 8 min, which led to no more than 50% consumption of MG into porphyra-334 with the best substrate L-Thr and into shinorine with L-Ser. For the other four amino acids, the levels of their corresponding disubstituted MAAs were determined after the reaction time was elongated to 30 min. […]
HPLC and LC-MS Analysis. Samples were analyzed on a Shimadzu Prominence UHPLC system (Kyoto, Japan) coupled with a PDA detector. […]

[2] = reported value used to calculate MG; cited from earlier work

SMILES | consumption level of MG in the MysD reaction relative to that with L-Thr [1] | extinction coefficient [2]
N[C@@H](CO)C(=O)O [L-Ser] | about 12.7% | 
C[C@@H](O)[C@H](N)C(=O)O [L-Thr] | 100% | 
N[C@@H](CS)C(=O)O [L-Cys] | 0.9% | 
C[C@H](N)C(=O)O [L-Ala] | 0.4% | 
COC1=C(NCC(=O)O)C[C@@](O)(CO)CC1=O [MG, mycosporine-glycine] |  | 28,100 M^−1 cm^−1
